Target: T1, Chloroperoxidase (CPO) (Leptoxyphium fumago, UniProt P04963)
T1 sequence (P04963 21-319): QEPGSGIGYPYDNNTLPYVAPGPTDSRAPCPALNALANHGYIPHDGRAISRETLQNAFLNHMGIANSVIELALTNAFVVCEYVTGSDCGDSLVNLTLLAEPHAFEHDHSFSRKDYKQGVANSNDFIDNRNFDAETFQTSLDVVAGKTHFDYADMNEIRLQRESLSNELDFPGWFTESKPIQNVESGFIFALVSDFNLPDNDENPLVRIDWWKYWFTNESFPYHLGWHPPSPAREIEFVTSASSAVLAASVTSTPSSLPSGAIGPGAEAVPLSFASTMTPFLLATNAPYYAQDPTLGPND
Assay: paramagnetic NMR T1 relaxation titration with purified CPO
Format: binding

`c1ccc2[nH]ccc2c1` [indole] showed a Kd of ~21 mM.

From article PMC3812394 (Biochemistry, 2013)
